pEC50: −log10 of the molar value.
system: TNFα; assay: IRAK4 Monocyte TNFα Cell Based Assay; design: species or system human; details: Homo sapiens, Monocyte, human monocytes, LPS stimulated; compounds 1-32; read-out: EC50 TNF
Procedure: IRAK4 Monocyte TNFα Cell Based Assay Procedure:
The cell suspension was then plated at a density of 5,000 cells/well onto black 384 well Greiner clear bottom plates. Plates were pre-spotted with test compounds and serially diluted in DMSO where 40 nL/well were delivered using the Echo 550 acoustic liquid dispenser (Labcyte®) for a final DMSO concentration of 0.1%. Plated cells were treated with compound for 1 hour at 37° C. Cells were then stimulated with 50 pg/ml of LPS (Sigma) excluding outside columns of plate used for unstimulated cell control wells. Cells were incubated for an additional 4 hours at 37° C. Cells were then spun out of the media and 5 μl of sample were taken and analyzed for total TNFα content using the TR-FRET Human TNFα detection system (CisBio). This system utilizes two labeled antibodies (cryptate and XL665) that bind to two different epitopes of the TNFα molecule and produce FRET signal proportional to the concentration of TNFα in the sample. Detection antibodies are mixed 50:50 and 5 μL were dispensed into each well. Plates were covered with clear seals and incubated at room temp overnight. […] Percent of control was calculated as follows: % Control=100×(Ratiosample−Ratio0% stimulation)/(Ratio100% Stimulation−Ratio0% Stimulation) where unstimulated cells (0% stimulation) were the negative control and stimulated cells (100% stimulation) were used as the positive control.

pEC50 | SMILES
5.67 | CC(C)Nc1cc(-c2ccc3cc(C#N)cnn23)ncc1-c1nnc(C(=O)N2CCCC2)s1 [Example 9, 7-(4-(isopropylamino)-5-(5-(pyrrolidine-1-carbonyl)-1,3,4-thiadiazol-2-yl)pyridin-2-yl)pyrrolo[1,2-b]pyridazine-3-carbonitrile]
5.12 | CC(=O)NC1CCN(C(=O)c2nnc(-c3cnc(-c4ccc5cc(C#N)cnn45)cc3NC(C)C)s2)CC1 [Example 8, N-(1-(5-(6-(3-cyanopyrrolo[1,2-b]pyridazin-7-yl)-4-(isopropylamino)pyridin-3-yl)-1,3,4-thiadiazole-2-carbonyl)piperidin-4-yl)acetamide]

same assay, conditions: Homo sapiens, Monocyte, human monocytes; second part of Table 2, compounds 33-343; unit inferred; read-out: EC50 MONO TNF HTRF

pEC50 | SMILES
7.86 | CC1(O)CCC(c2nnc(-c3cnc(-c4ccc5cc(C#N)cnn45)cc3NC3COC3)s2)CC1 (single isomer, unassigned) [Example 206, 7-(5-(5-(4-hydroxy-4-methylcyclohexyl)-1,3,4-thiadiazol-2-yl)-4-(oxetan-3-ylamino)pyridin-2-yl)pyrrolo[1,2-b]pyridazine-3-carbonitrile]

same assay, conditions: human monocytes, LPS stimulated; compounds 1-32; read-out: EC50 TNF

pEC50 | SMILES
6.68 | CC(C)Nc1cc(-c2ccc3cc(C#N)cnn23)ncc1-c1nnc(C2CCOCC2)s1 [Example 32]

same assay, conditions: human monocytes; second part of Table 2, compounds 33-343; unit inferred; read-out: EC50 MONO TNF HTRF

SMILES | pEC50
CC(=O)N1C2CCC1CN(c1nnc(-c3cnc(-c4ccc5cc(C#N)cnn45)cc3NC3(C)COC3)s1)C2 [Compound 264] | 8.57
CC(=O)N[C@H]1[C@@H]2C[C@H]1CN(c1nnc(-c3cnc(-c4ccc5cc(C#N)cnn45)cc3NC(C)C)s1)C2 [Example 45] | 7.93
CC(C)Nc1cc(-c2ccc3cc(C#N)cnn23)ncc1-c1nnc(C2CCC(NC(=O)C(C)(C)C(=O)O)CC2)s1 (centres unmarked) [Compound 341] | 7.14
CC(=O)N[C@H]1CN(c2nnc(-c3cnc(-c4ccc5cc(C#N)cnn45)cc3NC(C)C)s2)CC12CC2 [Compound 323] | 8.43
CC(=O)N1C[C@H]2COC[C@@H](C1)N2c1nnc(-c2cnc(-c3ccc4cc(C#N)cnn34)cc2NC(C)C)s1 [Compound 266] | 8.49
CC(=O)N[C@H]1C[C@@H](c2nnc(-c3cnc(-c4ccc5cc(C#N)cnn45)cc3NC(C)C)s2)C1 [Compound 279, N-((1s,3s)-3-(5-(6-(3-cyanopyrrolo[1,2-b]pyridazin-7-yl)-4-(isopropylamino)pyridin-3-yl)-1,3,4-thiadiazol-2-yl)cyclobutyl)acetamide] | 7.80
CC(=O)N1CC2CCC(C1)N2c1nnc(-c2cnc(-c3ccc4cc(C#N)cnn34)cc2NC(C)C)s1 [Compound 260, 7-(5-(5-(3-acety1-3,8-diazabicyclo[3.2.1]octan-8-yl)-1,3,4-thiadiazol-2-yl)-4-(isopropylamino)pyridin-2-yl)pyrrolo[1,2-b]pyridazine-3-carbonitrile] | 7.80
CC(=O)N1CCC2(CC1)CN(c1nnc(-c3cnc(-c4ccc5cc(C#N)cnn45)cc3NC3COC3)s1)C2 [Example 75, 7-(5-(5-(7-acetyl-2,7-diazaspiro[3.5]nonan-2-yl)-1,3,4-hiadiazol-2-yl)-4-(oxetan-3-ylamino)pyridin-2-yl)pyrrolo[1,2-b]pyridazine-3-carbonitrile] | 8.49
CC(C)Nc1cc(-c2ccc3cc(C#N)cnn23)ncc1-c1nnc(N2CCS(=N)(=O)CC2)s1 [Compound 262, 7-(5-(5-(1-imino-1-oxido-116-thiomorpholino)-1,3,4-thiadiazo1-2-yl)-4-(isopropylamino)pyridin-2-yl)pyrrolo[1,2-b]pyridazine-3-carbonitrile] | 7.16

Results, then the compound that gave them:

pEC50 | SMILES
9.22 | C[C@H](C#N)Nc1cc(-c2ccc3cc(C#N)cnn23)ncc1-c1nnc(N2C[C@H]3CC[C@@H](C2)[C@@H]3NC(=O)C(C)(C)O)s1 [Example 86]
8.28 | CC(=O)N1C[C@@H]2C[C@H]1CN2c1nnc(-c2cnc(-c3ccc4cc(C#N)cnn34)cc2NC(C)C)s1 [Example 302, 7-(5-(5-((1S,4S)-5-acety1-2,5-diazabicyclo[2.2.1]heptan-2-yl)-1,3,4-thiadiazol-2-yl)-4-(isopropylamino)pyridin-2-yl)pyrrolo[1,2-b]pyridazine-3-carbonitrile]
8.01 | CC(C)Nc1cc(-c2ccc3cc(C#N)cnn23)ncc1-c1nnc(N2CCN(C3COC3)CC2)s1 [Example 304]
7.98 | N#Cc1cnn2c(-c3cc(NC4COC4)c(-c4nnc([C@H]5CC[C@H](NC(=O)C6CC6)CC5)s4)cn3)ccc2c1 [Example 135, N-((1r,4r)-4-(5-(6-(3-cyanopyrrolo[1,2-b]pyridazin-7-yl)-4-(oxetan-3-ylamino)pyridin-3-yl)-1,3,4-thiadiazol-2-yl)cyclohexyl)cyclopropanecarboxamide]
7.79 | CC(=O)NC[C@H]1C[C@H](c2nnc(-c3cnc(-c4ccc5cc(C#N)cnn45)cc3NC(C)C)s2)C1 [Example 290, N-(((1r,3r)-3-(5-(6-(3-cyanopyrrolo[1,2-b]pyridazin-7-yl)-4-(isopropylamino)pyridin-3-yl)-1,3,4-thiadiazol-2-yl)cyclobutyl)methyl)acetamide]
8.40 | CC(C)Nc1cc(-c2ccc3cc(C#N)cnn23)ncc1-c1nnc(N2C[C@H]3CC[C@@H](C2)[C@@H]3NC(=O)C2(C)COC2)s1 [Example 94]
7.64 | CC(C)Nc1cc(-c2ccc3cc(C#N)cnn23)ncc1-c1nnc(N2CC3(CCC(C)(O)CC3)C2)s1 [Example 82, 7-(5-(5-(7-hydroxy-7-methyl-2-azaspiro[3.5]nonan-2-yl)-1,3,4-thiadiazo1-2-yl)-4-(isopropylamino)pyridin-2-yl)pyrrolo[1,2-b]pyridazine-3-carbonitrile]
8.51 | COC(=O)NC[C@H]1C[C@H](Nc2cc(-c3ccc4cc(C#N)cnn34)ncc2-c2nnc([C@H]3CC[C@H](NC(=O)N4CCOCC4)CC3)s2)C1 [Example 143]
7.58 | COC(=O)N[C@H]1CC[C@H](c2nnc(-c3cnc(-c4ccc5cc(C#N)cnn45)cc3NC(C)C)s2)CC1 [Example 126, methyl ((1r,4r)-4-(5-(6-(3-cyanopyrrolo[1,2-b]pyridazin-7-yl)-4-(isopropylamino)pyridin-3-yl)-1,3,4-thiadiazol-2-yl)cyclohexyl)carbamate]
6.16 | CC(C)Nc1cc(-c2ccc3cc(C#N)cnn23)ncc1-c1nnc(N2C[C@H]3CC[C@@H](C2)[C@@H]3Nc2ncccc2F)s1 [Example 309]
7.88 | CC(C)Nc1cc(-c2ccc3cc(C#N)cnn23)ncc1-c1nnc(N2C[C@H]3CC[C@@H](C2)[C@@H]3O)s1 [Example 154, 7-(5-(5-((1R,5S,8s)-8-hydroxy-3-azabicyclo[3.2.1]octan-3-yl)-1,3,4-thiadiazol-2-yl)-4-(isopropylamino)pyridin-2-yl)pyrrolo[1,2-b]pyridazine-3-carbonitrile]
8.02 | CC(=O)N[C@@H]1C[C@H]2COC[C@@H](C1)N2c1nnc(-c2cnc(-c3ccc4cc(C#N)cnn34)cc2NC(C)C)s1 [Example 209, N-((1R,5S,7r)-9-(5-(6-(3-cyanopyrrolo[1,2-b]pyridazin-7-yl)-4-(isopropylamino)pyridin-3-yl)-1,3,4-thiadiazol-2-yl)-3-oxa-9-azabicyclo[3.3.1]nonan-7-yl)acetamide]
8.08 | CC(C)Nc1cc(-c2ccc3cc(C#N)cnn23)ncc1-c1nnc(N2CC[C@@](C)(O)[C@@H](F)C2)s1 [Example 186, 7-(5-(5-((3S,4R)-3-fluoro-4-hydroxy-4-methylpiperidin-l-yl)-1,3,4-thiadiazol-2-yl)-4-(isopropylamino)pyridin-2-yl)pyrrolo[1,2-b]pyridazine-3-carbonitrile]

Reference: patent publication US11046686B2, “Thiadiazole IRAK4 compounds” (Gilead Sciences, Inc., priority 2018, dated 2021)
